Laboratory results reported in patent publication US20080221045A1, “Hepatic Function-Improving Agent” (Kabushiki Kaisha Hayashibara Seibutsu Kagaku Kenkyujo, priority 2004, published 2008).

Legend:
hepatic functions = assay: Administration test of α-glucosyl-hesperidin on hamsters (cholesterol-supplemented feed), serum GOT and GPT; format: in vivo, golden hamsters; conditions: for Serum GOT / Serum GPT: 0.25 mmole/kg/day by stomach sonde, 5 weeks, last 3 weeks feed with 1% cholesterol, average ± SD; for Serum GOT: distilled water control 171 ± 46, before 46 ± 8; for Serum GPT: distilled water control 418 ± 106, before 81 ± 18; for serum levels of GOT and GPT compared with the distilled water group (control 1): 0.25 mmole/kg/day
Procedure: The animal experiment using hamsters was performed to investigate the influences of the intake of α-glucosyl-hesperidin on hepatic functions.
A group of five golden hamsters of five weeks old was fed on liberal amount of “NMF Lab Animal Diet Powder” (produced by Oriental Yeast Co., Ltd.) with the administration of “αG-HESPERIDIN PS®” (a powdery α-glucosyl-hesperidin containing 82.8% of α-glucosyl-hesperidin, commercialized by Hayashibara Shoji, Inc.) dissolved in distilled water. α-Glucosyl-hesperidin was administered to the hamsters through a stomach sonde at a dose of 0.25 mmole (193 mg)/kg/body weight every day. After two-week administrations of α-glucosyl-hesperidin, the hamsters were fed for additional three weeks in the same way as described above except that their feed was supplemented with 1% by weight of cholesterol. At four hours after the final administrations, the hamsters were anesthetized and under went laparotomy, and their large-venous blood samples were taken. After the separation of the hamsters' serums by a conventional method, the levels of GOT and GPT were measured. As the control 1, another group was fed and its blood samples were taken in the same way except that distilled water instead of α-glucosyl-hesperidin was administered to the hamsters. As the control 2, a third group was fed and their blood samples were taken in the same way except that hesperidin (a regent grade specimen, commercialized by Wako Pure Chemical Industries, Ltd.) instead of α-glucosyl-hesperidin suspended in distilled water was administered to the hamsters at a dose of 0.25 mmole (153 mg)/kg/body weight. The other group was fed on liberal amount of “NMF Lab Animal Diet Powder” with no administration of the test articles and their blood samples were taken in the same way as describe above, and the serum levels of GOT and GPT were measured to obtain the data before the administrations.

[1] = mammals including humans with an elevated TG level; Yamada et al. 2003, Miwa et al. 2004; cited from earlier work

| SMILES | Serum GOT (hepatic functions) | Serum GPT (hepatic functions) | serum levels of GOT and GPT compared with the distilled water group (control 1) (hepatic functions; hamsters) | effect for keeping hepatic-function indexes at a lower level, compared with hesperidin (hepatic functions; hamsters, equal molar dose 0.25 mmole/kg/day) | effect on blood triglyceride (TG) level [1] |
| --- | --- | --- | --- | --- | --- |
| COc1ccc([C@@H]2CC(=O)c3c(O)cc(O[C@@H]4O[C@H](CO[C@@H]5O[C@@H](C)[C@H](O)[C@@H](O)[C@H]5O)[C@@H](O)[C@H](O)[C@H]4O)cc3O2)cc1O [Hesperidin, hesperidin, reference compound] | 101 ± 30 IU/L | 298 ± 76 IU/L | kept lower | – | – |
| COc1ccc(C2CC(=O)c3c(O)cc(O[C@@H]4OC(CO[C@@H]5OC(C)[C@H](O)C(O)C5O)[C@@H](COC[C@H]5OC(CO)[C@@H](O)C(O)C5O)C(O)C4O)cc3O2)cc1O (stereo partly drawn) [α-Glucosyl-hesperidin, α-glucosyl-hesperidin] | 66 ± 44 IU/L | 226 ± 74 IU/L | kept lower | greater effect than that of hesperidin | marked effect of reducing blood triglyceride |
